The source made the active and inactive calls. The calls are words filed in the database; no cut-off is given here.
How the values were obtained:
[1] = target: T1, Nitric oxide synthase, inducible (Mus musculus) (UniProt P29477); assay: Inhibition of iNOS-mediated nitric oxide production in LPS-stimulated mouse RAW264.7 cells at 10 ug/ml measured after 24 hrs by Griess reaction method; format: cell-based
T1 sequence (whole entry): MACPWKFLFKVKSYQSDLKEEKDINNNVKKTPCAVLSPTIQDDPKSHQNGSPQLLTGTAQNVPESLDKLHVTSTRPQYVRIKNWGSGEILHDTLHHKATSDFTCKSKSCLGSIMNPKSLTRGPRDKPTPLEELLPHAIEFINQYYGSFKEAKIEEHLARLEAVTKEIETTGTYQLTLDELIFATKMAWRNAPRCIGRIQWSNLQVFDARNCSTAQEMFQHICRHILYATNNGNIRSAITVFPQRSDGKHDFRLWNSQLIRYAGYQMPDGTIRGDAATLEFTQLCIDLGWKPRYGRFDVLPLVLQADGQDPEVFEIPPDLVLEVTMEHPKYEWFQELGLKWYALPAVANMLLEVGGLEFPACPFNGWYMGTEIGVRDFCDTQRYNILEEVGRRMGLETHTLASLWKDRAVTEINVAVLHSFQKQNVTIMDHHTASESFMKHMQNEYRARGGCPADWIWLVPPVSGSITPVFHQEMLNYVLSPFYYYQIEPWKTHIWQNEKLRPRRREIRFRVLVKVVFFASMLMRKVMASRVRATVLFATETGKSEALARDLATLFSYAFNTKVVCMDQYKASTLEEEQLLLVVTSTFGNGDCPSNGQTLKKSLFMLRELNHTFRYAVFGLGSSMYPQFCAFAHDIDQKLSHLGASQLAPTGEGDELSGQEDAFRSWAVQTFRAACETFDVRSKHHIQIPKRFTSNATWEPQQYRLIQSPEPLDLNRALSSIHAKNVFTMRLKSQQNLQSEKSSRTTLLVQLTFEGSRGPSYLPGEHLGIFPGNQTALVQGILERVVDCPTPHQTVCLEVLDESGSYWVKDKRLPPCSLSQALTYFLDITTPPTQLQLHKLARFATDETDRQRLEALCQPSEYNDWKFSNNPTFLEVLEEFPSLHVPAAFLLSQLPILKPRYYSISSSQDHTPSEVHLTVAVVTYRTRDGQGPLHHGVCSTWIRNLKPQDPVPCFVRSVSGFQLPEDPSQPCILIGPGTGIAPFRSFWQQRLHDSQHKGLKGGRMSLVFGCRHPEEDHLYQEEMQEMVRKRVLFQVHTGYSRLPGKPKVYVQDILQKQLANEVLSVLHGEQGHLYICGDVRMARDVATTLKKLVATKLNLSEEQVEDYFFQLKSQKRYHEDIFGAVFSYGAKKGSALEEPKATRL

[2] = target: T1, Nitric oxide synthase, inducible (Mus musculus); assay: Inhibition of iNOS activity in LPS-stimulated mouse RAW264.7 cells assessed as conversion of L-[…] arginine to L-[3H] citruline per mg of protein at 10 ug/ml after 24 hrs; format: cell-based
RAW264.7 [3] = assay: Inhibition of iNOS mRNA expression in LPS-stimulated mouse RAW264.7 cells at 50 ug/ml after 24 hrs by real time fluorescent quantitative real time PCR relative to negative control; format: functional
RAW264.7 [4] = assay: Antiinflammatory activity in mouse RAW264.7 cells assessed as inhibition of LPS-induced IL-6 release by ELISA; format: functional, cell-based
[5] = target: T1, Nitric oxide synthase, inducible (Mus musculus); assay: Inhibition of iNOS activity in LPS-stimulated mouse RAW264.7 cells assessed as conversion of L-[…] arginine to L-[3H] citruline per mg of protein at 50 ug/ml after 24 hrs; format: cell-based
[6] = target: T1, Nitric oxide synthase, inducible (Mus musculus); assay: Inhibition of iNOS activity in LPS-stimulated mouse RAW264.7 cells assessed as conversion of L-[…] arginine to L-[3H] citruline per mg of protein at 100 ug/ml after 24 hrs; format: cell-based
[7] = target: T1, Nitric oxide synthase, inducible (Mus musculus); assay: Inhibition of iNOS activity in LPS-stimulated mouse RAW264.7 cells assessed as conversion of L-[…] arginine to L-[3H] citruline per mg of protein at 25 ug/ml after 24 hrs; format: cell-based
[8] = target: T1, Nitric oxide synthase, inducible (Mus musculus); assay: Inhibition of iNOS-mediated nitric oxide production in LPS-stimulated mouse RAW264.7 cells measured after 24 hrs by Griess reaction method; format: cell-based
RAW264.7 [9] = assay: Cytotoxicity against mouse RAW264.7 cells at 25 to 200 ug/ml after 24 hrs by MTT assay; format: cell-based; conditions: raw264.7, 24 h
RAW264.7 [10] = assay: Inhibition of iNOS mRNA expression in LPS-stimulated mouse RAW264.7 cells at 200 ug/ml after 24 hrs by real time fluorescent quantitative real time PCR relative to negative control; format: functional
RAW264.7 [11] = assay: Antiinflammatory activity in mouse RAW264.7 cells assessed as inhibition of LPS-induced IL-1 release by ELISA; format: functional, cell-based
RAW264.7 [12] = assay: Inhibition of iNOS mRNA expression in LPS-stimulated mouse RAW264.7 cells at 25 ug/ml after 24 hrs by real time fluorescent quantitative real time PCR relative to negative control; format: functional
[13] = target: T1, Nitric oxide synthase, inducible (Mus musculus); assay: Inhibition of iNOS activity in LPS-stimulated mouse RAW264.7 cells assessed as conversion of L-[…] arginine to L-[3H] citruline per mg of protein after 24 hrs; format: cell-based
RAW264.7 [14] = assay: Antiinflammatory activity in mouse RAW264.7 cells assessed as inhibition of LPS-induced TNFalpha release by ELISA; format: functional, cell-based
RAW264.7 [15] = assay: Inhibition of LPS-induced NF-kappaB activation in mouse RAW264.7 cells expressing pNF-kappaB-LUC at 25 to 200 ug/ml after 24 hrs by luciferase reporter gene assay relative to unstimulated cells; format: cell-based
RAW264.7 [16] = assay: Inhibition of iNOS mRNA expression in LPS-stimulated mouse RAW264.7 cells at 100 ug/ml after 24 hrs by real time fluorescent quantitative real time PCR relative to negative control; format: functional
[17] = target: T1, Nitric oxide synthase, inducible (Mus musculus); assay: Inhibition of iNOS activity in LPS-stimulated mouse RAW264.7 cells assessed as conversion of L-[…] arginine to L-[3H] citruline per mg of protein at 200 ug/ml after 24 hrs; format: cell-based
[18] = target: T1, Nitric oxide synthase, inducible (Mus musculus); assay: Inhibition of iNOS-mediated nitric oxide production in LPS-stimulated mouse RAW264.7 cells at 25 to 200 ug/ml measured after 24 hrs by Griess reaction method; format: cell-based

## N=C(N)NN
[1]
  inhibition: inactive
[2]
  Activity: 2.7 pmol/min

## C[C@@H]1O[C@@H](O[C@H]2[C@H](O[C@H]3[C@H](O[C@H]4CC[C@@]5(C)[C@@H](CC[C@]6(C)[C@@H]5CC=C5[C@@H]7CC(C)(C)C[C@@H](O)[C@]7(C)CC[C@]56C)[C@@]4(C)CO)O[C@H](C(=O)O)[C@@H](O)[C@@H]3O)O[C@H](CO)[C@H](O)[C@@H]2O)[C@H](O)[C@H](O)[C@H]1O [SOYASAPONIN I]
RAW264.7 [3]
  fold change (FC): 8.8
RAW264.7 [4]
  inhibition: inactive
[5]
  Activity: 16.6 pmol/min
[6]
  Activity: 11.7 pmol/min
[7]
  Activity: 24 pmol/min
[8]
  inhibition: Dose-dependent effect
RAW264.7 [9]
  Activity: Non-toxic
RAW264.7 [10]
  fold change (FC): 5.6
RAW264.7 [11]
  inhibition: inactive
RAW264.7 [12]
  fold change (FC): 11.1
[13]
  inhibition: Dose-dependent effect
RAW264.7 [14]
  inhibition: Active
RAW264.7 [15]
  inhibition: Dose-dependent effect
RAW264.7 [16]
  fold change (FC): 6.8
[17]
  Activity: 9.2 pmol/min

## CC1(C)C[C@H]2C3=CC[C@@H]4[C@@]5(C)CC[C@H](O)[C@](C)(CO)[C@@H]5CC[C@@]4(C)[C@]3(C)CC[C@@]2(C)[C@H](O)[C@@H]1O [SOYASAPOGENOL A]
RAW264.7 [3]
  fold change (FC): 15
RAW264.7 [4]
  inhibition: inactive
[5]
  Activity: 27 pmol/min
[6]
  Activity: 26.9 pmol/min
[7]
  Activity: 27.7 pmol/min
RAW264.7 [9]
  Activity: Non-toxic
RAW264.7 [10]
  fold change (FC): 15.3
RAW264.7 [11]
  inhibition: inactive
RAW264.7 [12]
  fold change (FC): 15.1
[18]
  inhibition: inactive
RAW264.7 [14]
  inhibition: inactive
RAW264.7 [16]
  fold change (FC): 15.1
[17]
  Activity: 27 pmol/min

## CC1(C)C[C@H]2C3=CC[C@@H]4[C@@]5(C)CC[C@H](O[C@@H]6O[C@H](C(=O)O)[C@@H](O)[C@H](O)[C@H]6O[C@@H]6O[C@H](CO)[C@@H](O)[C@@H](O)[C@H]6O)[C@](C)(CO)[C@@H]5CC[C@@]4(C)[C@]3(C)CC[C@@]2(C)[C@H](O[C@@H]2OC[C@H](O)[C@@H](O)[C@H]2O[C@@H]2O[C@H](CO)[C@@H](O)[C@@H](O)[C@H]2O)[C@@H]1O [SOYASAPONIN A2]
RAW264.7 [3]
  fold change (FC): 10.7
RAW264.7 [4]
  inhibition: inactive
[5]
  Activity: 19 pmol/min
[6]
  Activity: 14 pmol/min
[7]
  Activity: 23.6 pmol/min
[8]
  inhibition: Dose-dependent effect
RAW264.7 [9]
  Activity: Non-toxic
RAW264.7 [10]
  fold change (FC): 4.4
RAW264.7 [11]
  inhibition: inactive
RAW264.7 [12]
  fold change (FC): 11.4
[13]
  inhibition: Dose-dependent effect
RAW264.7 [14]
  inhibition: Active
RAW264.7 [15]
  inhibition: Dose-dependent effect
RAW264.7 [16]
  fold change (FC): 5.7
[17]
  Activity: 9.3 pmol/min

## CC1(C)C[C@H]2C3=CC[C@@H]4[C@@]5(C)CC[C@H](O[C@@H]6O[C@H](C(=O)O)[C@@H](O)[C@H](O)[C@H]6O[C@@H]6O[C@H](CO)[C@H](O)[C@H](O)[C@H]6O[C@@H]6O[C@H](CO)[C@@H](O)[C@H](O)[C@H]6O)[C@](C)(CO)[C@@H]5CC[C@@]4(C)[C@]3(C)CC[C@@]2(C)[C@H](O[C@@H]2OC[C@H](O)[C@@H](O)[C@H]2O[C@@H]2O[C@H](CO)[C@@H](O)[C@@H](O)[C@H]2O)[C@@H]1O [SOYASAPONIN A1]
RAW264.7 [3]
  fold change (FC): 11.3
RAW264.7 [4]
  inhibition: inactive
[5]
  Activity: 18.3 pmol/min
[6]
  Activity: 11.4 pmol/min
[7]
  Activity: 22.3 pmol/min
[8]
  inhibition: Dose-dependent effect
RAW264.7 [9]
  Activity: Non-toxic
RAW264.7 [10]
  fold change (FC): 5.1
RAW264.7 [11]
  inhibition: inactive
RAW264.7 [12]
  fold change (FC): 11.6
[13]
  inhibition: Dose-dependent effect
RAW264.7 [14]
  inhibition: Active
RAW264.7 [15]
  inhibition: Dose-dependent effect
RAW264.7 [16]
  fold change (FC): 7.5
[17]
  Activity: 6.2 pmol/min

## CC1(C)C[C@@H](O)[C@]2(C)CC[C@]3(C)C(=CC[C@@H]4[C@@]5(C)CC[C@H](O)[C@](C)(CO)[C@@H]5CC[C@]43C)[C@@H]2C1 [SOYASAPOGENOL B]
RAW264.7 [3]
  fold change (FC): 14.8
RAW264.7 [4]
  inhibition: inactive
[5]
  Activity: 26.5 pmol/min
[6]
  Activity: 26.6 pmol/min
[7]
  Activity: 27.4 pmol/min
RAW264.7 [9]
  Activity: Non-toxic
RAW264.7 [10]
  fold change (FC): 15.4
RAW264.7 [11]
  inhibition: inactive
RAW264.7 [12]
  fold change (FC): 14.7
[18]
  inhibition: inactive
RAW264.7 [14]
  inhibition: inactive
RAW264.7 [16]
  fold change (FC): 14.7
[17]
  Activity: 27.1 pmol/min
